Test results taken from patent US8258127B2, “Methods for treating latent tuberculosis” (Institut National de la Sante et de la Recherche Medicale …, priority 2008, dated 2012).

Key:
[1] = molecular target: T1, LdtMt1 L,D-transpeptidase (Mycobacterium tuberculosis, UniProt O53638); assay: Formation of enzyme-drug adducts between LdtMt1 and β-lactams (electrospray mass spectrometry); type: binding; conditions: LdtMt1 12.5 μM, β-lactam 125 μM, 1 h at 37° C.; for Average mass Observated of LdtMt1-β-lactam adduct: ND: not detected, native protein 24,584.4
Description: LdtMt1 (12.5 μM) was incubated without antibiotic (left panel) or with 125 μM imipenem (right panel). Proteins and adducts were detected by electrospray mass spectrometry. Peaks at m/z 848.75 and 879.03 correspond to the [M+29H]^29+ and [M+28H]^28+ ions of the native protein, respectively (deduced average mass of 24,584.4). Peaks at m/z 859.08 and 889.65 correspond to the [M+29H]^29+ and [M+28H]^28+ ions of the LdtMt1-imipenem adduct (deduced average mass of 24,883.5).
The formation of enzyme-drug adducts was tested by incubating LdtMt1 (12.5 μM) with β-lactams (125 μM) for 1 h at 37° C. in buffer A. The reaction mixture was dialyzed against water for 30 min and the average mass of proteins and protein-β-lactam adducts was determined as described (Mainardi et al., 2007, Supra).
To gain insight into the mechanism of LdtMt1 inhibition by β-lactams, binding of the drugs to the enzyme was tested by electrospray mass spectrometry. […] Adducts matching increments of the average mass of other carbapenems, meropenem and ertapenem, were also detected (Table 2 hereunder).

[2] = molecular target: T1, LdtMt1 L,D-transpeptidase; assay: Inhibition of LdtMt1 L,D-transpeptidase activity by β-lactams (formation of mDap3→mDap3 cross-linked dimers, mass spectrometry); type: biochemical; conditions: for blocking of the L,D-transpeptidase enzyme (summary in words): summary statement of the description
Description: The disaccharide-tetrapeptide containing amidated meso-diaminopimelic acid (GlcNAc-MurNAc-L-Ala^1-D-iGln^2-mesoDapNH2^3-D-Ala^4) was purified from C. jeikeium strain CIP103337 and the concentration w as determined by amino acid analysis after acid hydrolysis (Arbeloa et al., 2007, J. Biol. Chem., Vol. 279: 41546-41556; Auger et al., FEMS Microbiol. Lett., Vol. 219: 115-119). In vitro formation of muropeptide dimers was tested in 10 μL of 50 mM Tris-HCl (pH 7.5) containing 300 mM NaCl, 11 μM LdtMt1, and 280 μM disaccharide-tetrapeptide. The reaction mixture was incubated for 2 hours at 37° C., treated with ammonium hydroxide, and the resulting lactoyl-peptides were analyzed by nanoelectrospray tandem mass spectrometry using N2 as the collision gas (Arbeloa et al., 2007, Supra).
LdtMt1 (12.5 μM) was pre-incubated for 20 min at 37° C. with ampicillin (Bristol-Myers), ceftriaxone (Roche Applied Science), and imipenem (Merck Sharpe and Dhome-Chibret) in 50 mM Tris-HCl (pH 7.5) containing 300 mM NaCl (buffer A). The L,D-transpeptidation reaction was started by the addition of the disaccharide-tetrapeptide (final concentration 280 μM) and allowed to proceed for 2 hours at 37° C. The reaction products were detected by mass spectrometry (Mainardi et al., 2007, J. Biol. Chem., Vol. 282: 30414-30422).
To investigate inhibition of the L,D-transpeptidase activity of LdtMt1 by β-lactams, the formation of dimers containing mDap^3→mDap^3 cross-links was tested in the presence of various drug concentrations.

[3] = LdtMt1 12.5 μM, pre-incubated 20 min at 37° C., disaccharide-tetrapeptide 280 μM, 2 hours

T1 sequence (O53638 32-251 limits assumed): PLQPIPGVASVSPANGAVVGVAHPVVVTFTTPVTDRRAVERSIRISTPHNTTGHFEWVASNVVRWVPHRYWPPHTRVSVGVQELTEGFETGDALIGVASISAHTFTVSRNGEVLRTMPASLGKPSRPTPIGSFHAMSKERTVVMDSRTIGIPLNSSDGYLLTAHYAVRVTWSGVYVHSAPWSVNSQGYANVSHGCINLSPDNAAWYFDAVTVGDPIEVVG

Row | Compound | formation of adduct with LdtMt1 (in words) [1] | highest tested concentration without inhibition of LdtMt1 [2, 3] [mM] | blocking of the L,D-transpeptidase enzyme (summary in words) [2] | Average mass Observated of LdtMt1-β-lactam adduct [1] | drug concentration required for full inhibition of enzyme activity [2, 3] [µM]
1 | CC1(C)S[C@@H]2[C@H](NC(=O)[C@H](N)c3ccccc3)C(=O)N2[C@H]1C(=O)O [Ampicillin, ampicillin] | No adduct was detected | > 5.7 | inactive |  | 
2 | C[C@@H](O)[C@H]1C(=O)N2C(C(=O)O)=C(S[C@@H]3CN[C@H](C(=O)Nc4cccc(C(=O)O)c4)C3)[C@H](C)[C@H]12 [Ertapenem, ertapenem] | detected |  | block the said L,D-transpeptidase enzyme | 25,059.9 | 
3 | CO/N=C(\C(=O)N[C@@H]1C(=O)N2C(C(=O)O)=C(CSc3nc(=O)c(=O)[nH]n3C)CS[C@H]12)c1csc(N)n1 [Ceftriaxone, ceftriaxone] | No adduct was detected |  |  |  | 360
4 | C[C@@H](O)[C@H]1C(=O)N2C(C(=O)O)=C(S[C@@H]3CN[C@H](C(=O)N(C)C)C3)[C@H](C)[C@H]12 [Meropenem, meropenem] | detected |  | block the said L,D-transpeptidase enzyme | 24,967.8 | 
